Test results taken from publication PMC11881343, “Safety of ilunocitinib tablets (Zenrelia™) after once daily oral administration in dogs” (BMC Veterinary Research, 2025).

Experiments:
dogs = test system: dogs; design: method as in internal report; details: dogs maintained on concrete floors with corn cob bedding; ref internal report; cited from earlier work
[1] = Plasma pharmacokinetics of ilunocitinib (LC-MS/MS, non-compartmental analysis)
Procedure: Samples were collected at pre-dose and at 0.5, 1, 2, 5, 8 and 24 h post-dosing on the day of the first and last dose (study days 1 and 182) and at pre-dose and at 1 and 24 h post-dosing at study day 85. Blood samples were collected in tubes containing K2 EDTA. Blood was processed to plasma within one hour of collection and plasma samples were stored frozen at -20 °C until analyzed.
The bioanalytical data were processed as individual concentration vs. time profiles using a non-compartmental analysis (NCA). Calculations were performed with the software Phoenix WinNonlin (version 8.3; Certara, USA). Tmax and Cmax were derived from observed values. AUCs were calculated using the Linear Up Log Down method. In addition, T1/2 was calculated using the best fit method and dose, time and sex effects were evaluated based on Cmax and AUClast ratios.

healthy Beagle dogs [2] = details: dog, in vivo
Procedure: (§1) At study termination (study day 183), the dogs were humanely euthanized by an intravenous injection of pentobarbital sodium/phenytoin solution under sedation with 6.6–13.2 mg/kg Telazol® (tiletamine/zolazepam) subcutaneous injection. Gross and microscopic examinations were carried out on all animals by a board-certified veterinary pathologist.

healthy Beagle dogs [3] = test: 6-month target animal safety study: clinical observations, physical, neurological and ophthalmoscopic examinations; details: for Skin discoloration, number of animals affected / Skin lesion w/discharge, number of animals affected / Skin lesion, number of animals affected / Skin scab paw, number of animals affected / Skin thickening (paws), number of animals affected / Swollen paws, number of animals affected: 8 dogs per group
Procedure: This was a randomized, controlled, blinded, 6-month study with a parallel design. Using a block randomization procedure stratified by sex, 20 males and 20 females were randomly allocated on study day − 3 to one of the following five groups (4 males and 4 females per group): Group 1: Untreated control (sham-dosed with 5 mL of tap water); Group 2: Ilunocitinib film-coated tablets at a target dose level of 0.8 mg/kg (1X); Group 3: Ilunocitinib film-coated tablets at a target dose level of 1.6 mg/kg (2X); Group 4: Ilunocitinib film-coated tablets at a target dose level of 2.4 mg/kg (3X) and Group 5: Ilunocitinib film-coated tablets at a target dose level of 4.0 mg/kg (5X). The experimental unit was the individual dog.
The dose levels were selected based on the maximum therapeutic dose (i.e. 0.8 mg/kg, 1X) and the requirement to test multiples of the maximum therapeutic dose, i.e. 2X, 3X and 5X the therapeutic dose. Doses for each individual animal were based on the most recent body weight. Commercial tablets of ilunocitinib, available in 4.8, 6.4, 8.5, and 15 mg strength, were dispensed. These tablets were combined appropriately to meet the individual’s precise dosage requirement, ensuring there was no underdosing. […] Approximately 5 mL of water was given after each administration and the mouth checked to ensure the tablets had been swallowed. Control animals were sham treated with 5 mL of tap water.
Animals were observed twice daily, at least 6 h apart, over the entire course of the study for morbidity, mortality and injury. Clinical examinations of each dog were performed before treatment administration and at approximately 2 and 5 h post treatment. Observations included, but were not limited to, evaluation of skin, fur, eyes, ears, nose, oral cavity, thorax, abdomen, external genitalia, limbs and feet, respiratory and circulatory signs, autonomic effects such as salivation, and nervous system effects including tremors, convulsions, reactivity to handling, and unusual behavior.
Body weights for all animals were recorded during the acclimation phase (study days − 12 and − 1) and then once weekly during the study. Food consumption (dry and wet food) was measured and recorded daily. […] Assessments including overall general condition and behavior, ocular inspection, integument, musculoskeletal, gastrointestinal, body temperature, cardiovascular and respiratory systems including auscultation-based assessment, reproductive, lymphatic, urinary and nervous systems.

healthy Beagle dogs [4] = test: 6-month safety study: organ weights, gross and microscopic examinations; details: 5X group
Procedure: as §1

[5] = 1X (0.8 mg/kg oral once daily, 6 months)
[6] = 2X (1.6 mg/kg oral once daily, 6 months)
[7] = 3X (2.4 mg/kg oral once daily, 6 months)
[8] = 5X (4.0 mg/kg oral once daily, 6 months)

N#CCC1(n2cc(-c3ncnc4[nH]ccc34)cn2)CN(S(=O)(=O)C2CC2)C1 [ilunocitinib]
interdigital cysts (IDC) (dogs): not observed | AUC ratio, study day 182 vs day 1 ([1]; group 2 (1X: 0.8 mg/kg)): 1.2 | AUC ratio, study day 182 vs day 1 ([1]; group 3 (2X: 1.6 mg/kg)): 1.4 | AUC ratio, study day 182 vs day 1 ([1]; group 4 (3X: 2.4 mg/kg)): 1.6 | AUC ratio, study day 182 vs day 1 ([1]; group 5 (5X: 4.0 mg/kg)): 1.2 | Microscopic findings across all groups (healthy Beagle dogs [2]): minimal and largely consistent with background pathology | combined adrenal gland weight vs controls (healthy Beagle dogs [2]): increased combined adrenal gland weight | cutaneous lesions (microscopic), animals affected (healthy Beagle dogs [2]): 5 out of 8 | enlarged thyroid/parathyroid glands (incidental macroscopic finding) (healthy Beagle dogs [2]): single case of enlarged thyroid/parathyroid glands | focal lesions on the lungs (incidental macroscopic finding) (healthy Beagle dogs [2]): two focal lesions on the lungs | serious adverse effects during the course of the study (healthy Beagle dogs [3]; 0.8 to 4.0 mg/kg once daily for 6 months): no serious adverse effects | Skin discoloration, number of animals affected (healthy Beagle dogs [3]; [5]): 1 | Skin lesion w/discharge, number of animals affected (healthy Beagle dogs [3]; [5]): 1 | Skin lesion, number of animals affected (healthy Beagle dogs [3]; [5]): 4 | Skin scab paw, number of animals affected (healthy Beagle dogs [3]; [5]): 0 | Skin thickening (paws), number of animals affected (healthy Beagle dogs [3]; [5]): 0 | Swollen paws, number of animals affected (healthy Beagle dogs [3]; [5]): 1 | interdigital furunculosis, or cysts, with or without discharge on one or more paws (healthy Beagle dogs [3]; 1X to 5X): dose-dependent presence | Skin discoloration, number of animals affected (healthy Beagle dogs [3]; [6]): 1 | Skin lesion w/discharge, number of animals affected (healthy Beagle dogs [3]; [6]): 3 | Skin lesion, number of animals affected (healthy Beagle dogs [3]; [6]): 5 | Skin scab paw, number of animals affected (healthy Beagle dogs [3]; [6]): 0 | Skin thickening (paws), number of animals affected (healthy Beagle dogs [3]; [6]): 1 | Swollen paws, number of animals affected (healthy Beagle dogs [3]; [6]): 5 | Skin discoloration, number of animals affected (healthy Beagle dogs [3]; [7]): 2 | Skin lesion w/discharge, number of animals affected (healthy Beagle dogs [3]; [7]): 3 | Skin lesion, number of animals affected (healthy Beagle dogs [3]; [7]): 6 | Skin scab paw, number of animals affected (healthy Beagle dogs [3]; [7]): 1 | Skin thickening (paws), number of animals affected (healthy Beagle dogs [3]; [7]): 1 | Swollen paws, number of animals affected (healthy Beagle dogs [3]; [7]): 6 | Skin discoloration, number of animals affected (healthy Beagle dogs [3]; [8]): 0 | Skin lesion w/discharge, number of animals affected (healthy Beagle dogs [3]; [8]): 4 | Skin lesion, number of animals affected (healthy Beagle dogs [3]; [8]): 8 | Skin scab paw, number of animals affected (healthy Beagle dogs [3]; [8]): 1 | Skin thickening (paws), number of animals affected (healthy Beagle dogs [3]; [8]): 0 | Swollen paws, number of animals affected (healthy Beagle dogs [3]; [8]): 3 | ophthalmological or neurological findings associated with treatment (healthy Beagle dogs [3]; all dose levels): No ophthalmological or neurological findings | serious adverse effects or mortality (healthy Beagle dogs [3]; including at 5X overdose for 6 months): no serious adverse effects or mortality | tolerability (healthy Beagle dogs [3]; therapeutic dose (0.8 mg/kg)): well-tolerated | Prostate weight, prostate weight as a percent of body weight and ratio of prostate weight to brain weight vs controls (healthy Beagle dogs [4]): significantly decreased
